{"source": "patent US20070142326A1", "about": "“Treatment of a condition in a mammal with administration of aminosugar and uses thereof” (priority 2004, published 2007)", "key": {"[1]": {"system": "chondrocytes", "settings": "low millimolar concentrations; cited from earlier work"}, "[2]": {"system": "subchondral bone marrow of rabbits with ACLT (experimental OA)", "test": "Histological grading of subchondral bone marrow, ACLT rabbits, intra-articular injections", "assay_type": "in vivo, New Zealand White rabbits", "experimental": "(§1) Anterior cruciate ligament transection (ACLT). Unilateral or bilateral ACLT was performed as indicated for each set of experiments. ACLT was performed using a medial arthrotomy technique (Yoshioka et al. Osteoarthritis Cartilage 1996; 4:87-98). After dislocating the patella laterally, the ACL was transected with a sharp blade. Complete transection was confirmed by a manual anterior drawer test The knee joints were irrigated with sterile saline and closed in layers with sutures. All animals were maintained individually with ad libitum activity. The animals were sacrificed 8 weeks after the surgery.\n(§2) Intra-articular injections of GlcNAc. Intra-articular injections of GlcNAc started one week post-operatively for a period of seven weeks. Rabbits were injected twice per week with GlcNAc in a volume of 0.3 ml per knee joint The single dose of GlcNAc per injection was 80 mg. Control animals were injected twice per week intra-articularly with normal saline (0.3 ml per joint). The third group of rabbits received intra-articular injections of hyaluronan (0.3 ml per joint) twice per week for seven weeks starting one week after the ACL transection. Synovial fluid analysis was performed in 3 animals that developed gross synovial effusions (2 animals in the control group and 1 animal in the hyaluronan group). In all three animals synovial fluid was culture negative.\n(§3) Histological grading of the knee joints. Distal femur and proximal tibia from the rabbit knee joints were fixed in 10% buffered formalin, decalcified in TBD-2 decalcifier (ThermoShandon, Pittsburg, Calif.) and embedded in paraffin blocks. Sagittal sections of lateral and medial femoral condyles, and coronal sections of tibial plateaus were used for further histological analysis.\nMicroscopic assessment of bone marrow was based on the presence of subchondral bone marrow hypercellularity and increased vascularization as shown in Table 3."}, "[3]": {"system": "synovium of rabbits with ACLT (experimental OA)", "test": "Histological grading of synovium, ACLT rabbits, intra-articular injections", "assay_type": "in vivo, New Zealand White rabbits", "experimental": "as §1, §2, §3\nHistological assessment of synovium was based on the presence of synovial proliferation and synovial neoangiogenesis, and it was performed separately for the synovium attached to the tibial plateaus, lateral, and medial femoral condyles."}, "[4]": {"system": "knee joints of rabbits with ACL transection", "test": "Gross morphological assessment of joint swelling and synovial effusion, ACLT rabbits, intra-articular injections", "assay_type": "in vivo, New Zealand White rabbits", "settings": "FIG. 4", "experimental": "as §1, §2\n(§4) Gross morphological assessment of the knee joints. Gross morphological assessment of the knee joints included assessment of joint swelling, synovial effusion, macroscopic articular cartilage morphology of tibial plateaus and femoral condyles, and assessment of the menisci.\nThe following grading system was used to assess joint swelling: Grade 0-normal; Grade 1 (mild swelling)—mild inflammation and/or proliferation of the joint capsule; Grade 2 (moderate swelling)—thickening of joint capsule and/or inflammation of the synovium; Grade 3 (severe swelling)—abundant inflammation of the synovium, swelling of the menisci or ligaments (anterior cruciate ligament or posterior cruciate ligament)."}, "[5]": {"system": "femoral condyles and tibial plateaus of rabbits with ACL transection", "test": "Gross morphological assessment and digital imaging of articular cartilage, ACLT rabbits, intra-articular injections", "assay_type": "in vivo, New Zealand White rabbits", "settings": "for Gross morphological analysis of the femoral condyles: FIG. 2", "experimental": "as §1, §2\nGross morphological assessment of the articular cartilage. The distal femur and proximal tibia were harvested keeping a 3.5 cm to 4 cm shaft of the bones. The articular cartilage surface of each specimen was covered with a solution consisting of India ink (Eberhard Faber, Lewisburg, Tenn.) in PBS (1:5 ratio). Excess ink solution was removed by gentle blotting with a tissue that was pre-moistened with PBS. Subsequently, all joints were photographed and digital images were analyzed.\nDigital imaging. Articular surfaces of femoral condyles and tibial plateaus were gently blotted dry and cleaned of loose tissue. Each femoral shaft was clamped to an optical bench. An image (resolution: 60 pixels per mm; onscreen magnification: 20×) of the femoral condyles was obtained using a Canon EOS D30 digital camera with a 100 mm macro lens at a distance of approximately 12 cm. A millimeter scale was included in the photograph to accurately scale the image. The scaled image was then projected onto a 3D model of the femoral condyles. The 3D surface area of the lesion was measured by interactively plotting the margins of the lesion. A digital image of articular surface of the tibia was obtained as described above."}, "[6]": {"system": "articular cartilage of rabbits with ACLT (experimental OA)", "test": "Histological grading of articular cartilage, ACLT rabbits, intra-articular injections", "assay_type": "in vivo, New Zealand White rabbits", "settings": "N = 6; for Sulfated glycosaminoglycan loss, histological grade: grade 1-3 by loss of Safranin O staining, intra-articular 80 mg twice per week for 7 weeks; for Impairment of cartilage surface integrity, histological grade: grade 1 intact to 3 full thickness defect, intra-articular", "experimental": "as §1, §2, §3\nThe assessment of sulfated glycosaminoglycan (SGAG) content was performed after staining of the tissue sections with Safranin O/Fast Green.\nThe following grading system was used for assessing SGAG content: Grade 1—Less than 25% loss of Safranin O staining, Grade 2—25-50% loss of Safranin O staining; Grade 3—More than 50% loss of Safranin O staining;\nThe following grading system was used for assessing cartilage integrity: Grade 1—Intact cartilage surface; Grade 2—Presence of fibrillations; Grade 3—Full thickness cartilage defect. In addition, all tissue samples were analyzed for the presence of chondrocyte proliferation or cloning."}, "[7]": {"system": "human articular chondrocytes", "settings": "cited from earlier work"}, "[8]": {"test": "Continuous delivery of GlcNAc to the joint (sustained release and alzet pump methods)", "settings": "after a single intra-articular administration", "experimental": "Release of GlcNAc from formulations incubated in phosphate buffered saline. An in vitro release study was performed in phosphate buffered saline to evaluated release kinetics under physiological conditions. Each sustained release formulation (100 μl) was placed in 1.0 mL of phosphate buffered saline and then incubated at 37° C. At different time points, the formulation matrix was separated by removing the phosphate buffered saline bathing solution with a pipet. The resulting solutions were analyzed by UV detection after GlcNAc derivatives were formed by methods previously described (Reissig et. al. J. Biol. Chem. 1955 217: 959-966). The formulation matrix was then re-suspended in 1.0 mL phosphate buffered saline and incubated under the same conditions as described above.\nAlzet Pump Administration of GlcNAc. New Zealand White rabbits, 3.0-3.5 kg, were used in this experiment. They were randomly allocated into five groups, each group having 8 rabbits. Group A was treated with saline (negative control group); Group B was treated with 1.5 M GlcNAc group; Group C was treated with 0.5 M GlcNAc group; Group D was treated with 0.15 M GlcNAc group; Group E was treated with 0.05 M GlcNAc group. All compounds were continuously delivered to the joints by Alzet mini pumps. The delivery rate for this pump was 2.5 μl/hour. […]"}, "[9]": {"system": "rabbits with bilateral anterior cruciate ligament transection (ACLT)", "test": "Intra-muscular GlcNAc in rabbits with bilateral ACLT, gross morphological grading", "assay_type": "in vivo, New Zealand White rabbits", "experimental": "as §1\nIntra-muscular injections of GlcNAc. Intra-muscular injections of GlcNAc were performed three times per week starting one week postoperatively for a period of seven weeks. The dose of GlcNAc was 200 mg/kg per injection. The control group of received the same number of intra-muscular injections of normal saline.\nas §4\nGross morphological assessment of the articular cartilage. […] Subsequently, all joints were photographed and digital images were analyzed."}, "[10]": {"system": "synovial tissue of rabbits with ACL transection", "test": "DNA content in synovial tissue, ACLT rabbits, intra-articular injections", "assay_type": "in vivo, New Zealand White rabbits", "settings": "FIG. 5", "experimental": "as §1\nIntra-articular injections of GlcNAc. Intra-articular injections of GlcNAc started one week post-operatively for a period of seven weeks. Rabbits were injected twice per week with GlcNAc in a volume of 0.3 ml per knee joint The single dose of GlcNAc per injection was 80 mg. Control animals were injected twice per week intra-articularly with normal saline (0.3 ml per joint). […]\nMeasurement of DNA content in synovial tissue. Synovial tissue cellularity was assessed by quantitating the tissue concentration of DNA (Amiel et. al. J Orthop Res 1986; 4:162-172). […] The aqueous phase containing the DNA was harvested, and the absorbance was measured at […]. […] Results were expressed as mg DNA per mg of dry tissue."}}, "note": "Entries after “also recorded” stand apart in the source; their conditions may differ."}
{"smiles": "N[C@H]1C(O)O[C@H](CO)[C@@H](O)[C@@H]1O", "note": "(stereo partly drawn) [GlcN, glucosamine]", "values": [{"measurement": "Cytotoxicity for chondrocytes", "setting": "[1]", "result": "cytotoxic for chondrocytes at low millimolar concentrations"}]}
{"smiles": "CC(=O)N[C@H]1C(O)O[C@H](CO)[C@@H](O)[C@@H]1O", "note": "(stereo partly drawn) [GlcNAc, N-Acetylglucosamine]", "values": [{"measurement": "Subchondral bone marrow hypercellularity and increased vascularization, animals with finding / animals", "setting": "[2]; Lateral femoral condyle, N = 6, saline 3/7, P ≦ 0.07", "result": "0/6"}, {"measurement": "Subchondral bone marrow hypercellularity and increased vascularization, animals with finding / animals", "setting": "[2]; Medial femoral condyle, N = 6, saline 3/7, P ≦ 0.07", "result": "0/6"}, {"measurement": "Subchondral bone marrow hypercellularity and increased vascularization, animals with finding / animals", "setting": "[2]; Tibial plateau, N = 6, saline 3/7, P ≦ 0.35", "result": "1/6"}, {"measurement": "Synovial neoangiogenesis, animals with finding / animals", "setting": "[3]; Lateral femoral condyle, N = 6, saline 4/7, P ≦ 0.16", "result": "1/6"}, {"measurement": "Synovial thickening/proliferation, animals with finding / animals", "setting": "[3]; Lateral femoral condyle, N = 6, saline 7/7, P ≦ 0.006", "result": "2/6"}, {"measurement": "Synovial neoangiogenesis, animals with finding / animals", "setting": "[3]; Medial femoral condyle, N = 6, saline 5/7, P ≦ 0.05", "result": "1/6"}, {"measurement": "Synovial thickening/proliferation, animals with finding / animals", "setting": "[3]; Medial femoral condyle, N = 6, saline 7/7, P ≦ 0.006", "result": "2/6"}, {"measurement": "Synovial neoangiogenesis, animals with finding / animals", "setting": "[3]; Tibial plateau, N = 6, saline 4/7, P ≦ 0.16", "result": "1/6"}, {"measurement": "Synovial thickening/proliferation, animals with finding / animals", "setting": "[3]; Tibial plateau, N = 6, saline 7/7, P ≦ 0.0002", "result": "1/6"}, {"measurement": "Synovial effusion", "setting": "[4]; intra-articular GlcNAc versus hyaluronan group", "result": "no significant difference"}, {"measurement": "Joint swelling", "setting": "[4]; intra-articular, versus saline", "result": "does not significantly affect"}, {"measurement": "Synovial effusions", "setting": "[4]; intra-articular, versus saline", "result": "does not significantly affect"}, {"measurement": "Surface areas of the cartilage lesions (digital image analysis)", "setting": "[5]; femoral condyles and tibial plateaus, intra-articular GlcNAc versus hyaluronan group, FIGS. 6a and 6b", "result": "greatly reduced"}, {"measurement": "Gross morphological analysis of the femoral condyles", "setting": "[5]; intra-articular GlcNAc versus intra-articular hyaluronan group (n=7)", "result": "no significant difference"}, {"measurement": "Chondroprotective activity, gross morphology of tibial plateaus", "setting": "[5]; intra-articular GlcNAc versus intra-articular hyaluronan, p<0.01, FIG. 3", "result": "significantly greater"}, {"measurement": "Gross morphological analysis of the femoral condyles", "setting": "[5]; intra-articular, two times per week for seven weeks, n=7, versus saline control", "result": "trend towards improved cartilage condition"}, {"measurement": "Rabbits that developed a cartilage lesion on the tibial plateaus", "setting": "[5]; intra-articular, two times per week for seven weeks, control group 6 of 7, p<0.003, FIG. 3", "result": "1 of 7"}, {"measurement": "Sulfated glycosaminoglycan loss, histological grade", "setting": "[6]; Lateral femoral condyle, saline 2.43 ± 0.53, P ≦ 0.03", "result": "1.50 ± 0.83"}, {"measurement": "Impairment of cartilage surface integrity, histological grade", "setting": "[6]; Lateral femoral condyle, saline 2.00 ± 1.00, P ≦ 0.17", "result": "1.33 ± 0.51"}, {"measurement": "Sulfated glycosaminoglycan loss, histological grade", "setting": "[6]; Medial femoral condyle, saline 1.57 ± 0.53, P ≦ 0.4", "result": "1.66 ± .33"}, {"measurement": "Impairment of cartilage surface integrity, histological grade", "setting": "[6]; Medial femoral condyle, saline 1.66 ± 0.41, P ≦ 0.91", "result": "1.66 ± 0.81"}, {"measurement": "Sulfated glycosaminoglycan loss, histological grade", "setting": "[6]; Tibial plateau, saline 1.71 ± 0.76, P ≦ 0.14", "result": "1.16 ± 0.40"}, {"measurement": "Impairment of cartilage surface integrity, histological grade", "setting": "[6]; Tibial plateau, saline 1.71 ± 0.49, P ≦ 0.05", "result": "1.16 ± 0.41"}, {"measurement": "Concentration that does not induce chondrocyte cell death", "setting": "[7]", "result": "higher than 50 mM"}, {"measurement": "Duration of continuous delivery to the joint", "setting": "[8]", "result": "more than three weeks"}, {"measurement": "Degree of cartilage damage, gross morphological analysis of tibial plateaus and femoral condyles", "setting": "[9]; intra-muscular 200 mg/kg three times per week for seven weeks, 6 rabbits versus 6 saline controls, FIGS. 1a and 1b", "result": "did not reveal a statistically significant difference"}, {"measurement": "Synovitis", "setting": "[9]; intra-muscular GlcNAc", "result": "trend towards reduction of synovitis; also recorded: significant reduction of synovitis"}, {"measurement": "DNA content assessment of synovial tissue", "setting": "[10]; intra-articular GlcNAc versus hyaluronan group, p<0.05", "result": "significant reduction in synovial hyperplasia and cellularity"}, {"measurement": "DNA content in synovial tissue", "setting": "[10]; intra-articular, versus saline", "result": "does not significantly affect"}]}
